Assay results from publication PMC6133161, “Thiazoles with cyclopropyl fragment as antifungal, anticonvulsant, and anti-Toxoplasma gondii agents: synthesis, toxicity evaluation, and molecular docking study” (Medicinal Chemistry Research, 2018).
Values after ≈ are worked out from the molar mass of the structure shown. Like-named read-outs stand apart in the source and are kept apart here. Blank lines part the entries; values can stand above or below the compound they belong to.

How the values were obtained:
[1] = system: Toxoplasma gondii RH strain; assay: [3H]-uracil incorporation assay in VERO host cells; conditions: Toxoplasma gondii, Vero, read-out: Proliferation of Toxoplasma gondii RH strain ± SD
[2] = system: maximal electroshock seizures; assay: Maximal electroshock seizure (MES) test; format: in vivo, mouse; conditions: mice; for responders at 100 mg/kg: 100 mg/kg ip, read-out: X/Y number of mice protected (X) per number of mice tested (Y) (converted)
Protocol: For in vivo tests that assessed anticonvulsant properties of the test compounds 3a–3j adult male Albino Swiss (CD-1) mice weighing between 18 and 22 g were used. The animals were housed in groups of ten mice per cage at room temperature of 22 ± 2 °C, under light/dark (12:12) cycle. The animals had free access to food and tap water before the experiments. The ambient temperature of the experimental room and humidity (50 ± 10%) were kept consistent throughout all the tests. For behavioral experiments the animals were selected randomly. Each experimental group consisted of 4–8 animals/dose. The experiments were performed between 9 AM and 2 PM. Immediately after the in vivo assay the animals were euthanized by cervical dislocation. All procedures were approved by the Local Ethics Committee of the Jagiellonian University in Krakow (34/2018, 1.02.2018)) and the treatment of animals was in full accordance with ethical standards laid down in respective Polish and EU regulations (Directive No. 86/609/EEC). For in vivo tests the compounds 3a–3j were prepared in 1% Tween 80 solution (POCH, Poland) and they were administered by the intraperitoneal route. Control mice received 1% Tween 80. Pentylenetetrazole (PTZ), pilocarpine hydrochloride and scopolamine butylbromide were provided by Sigma Aldrich (Poland). For the tests they were prepared in 0.9% saline (Polfa Kutno, Poland). PTZ and pilocarpine were administered 60 min after the test compound or vehicle. To assess anticonvulsant properties of the test compounds anticonvulsant screening was conducted. Four assays were used: PTZ, maximal electroshock seizure (MES), 6-Hz and pilocarpine tests. In these assays the dose of 100 mg/kg was chosen as a starting dose. If it turned out to be effective, a lower dose (30 mg/kg) was also tested. MES test was performed according to a method previously described (Sałat et al. [2005]). In this test vehicle-treated mice and drug-treated mice received a stimulus of 25 mA delivered by an electroshock generator (Hugo Sachs rodent shocker, Germany) to induce maximal seizures (tonic extension) of hind limbs. Electroconvulsions were produced with the use of auricular electrodes and the stimulus duration was 0.2 s. Tonic extension of the hind limbs was regarded as the endpoint for this procedure.

C. sake = assay: Broth microdilution MIC/MFC, clinical isolate; format: cell-based; conditions: C. sake clinical strain
Text: (§1) In the study of antifungal activity of the compounds 3a–3j, 15 clinical strains of different species of yeasts from Candida species, namely C. albicans, C. dubliniensis C. famata, C. inconspicua, C. krusei, C. tropicalis, C. glabrata, C. lambica, C. kefyr, C. lusitaniae, C. parapsilosis, C. guilliermondii, C. lusitaniae, C. pulcherrima and C. sake were also used. These fungi were isolated by the author (from Department of Pharmaceutical Microbiology of Medical University in Lublin, Poland) from different clinical materials, e.g., from upper respiratory tract of hospitalized patients including cancer patients (i.e., with non-small cell lung cancer or hematological malignancies). Some patients were after pre-operative or post-operative chemotherapy (treated with etoposide or cis-platin given in doses according to the standard procedures), patients with chronic hepatitis C (undergoing peginterferon and ribavirin therapy or without antiviral therapy), patients with diabetes, elderly people, aged of 65 years old or older, staying in close population, such as a care centre and people staying outside the home care. The Ethical Committee of the Medical University of Lublin approved the study protocol (No. KE-0254/75/2011). The isolates were identified by standard diagnostic methods—biochemical microtest, e.g., API 20C AUX, ID 32C, API Candida (bioMérieux) on the basis of assimilation of various substrates. All the used microbial cultures were first subcultured on nutrient agar or Sabouraud agar for bacteria and fungi, respectively. The RPMI 1640 with MOPS (for fungi) were inoculated with the suspensions of fungal species. Microbial suspensions were prepared in sterile saline (0.85% NaCl) with an optical density of 0.5 McFarland standard scale (Wiegand et al. [2008]). Samples containing examined compounds were dissolved in dimethyl sulfoxide (DMSO). Furthermore, fungal suspensions were put onto Petri dishes with solid media containing 2 mg/ml of the tested compounds followed incubation under appropriate conditions. The inhibition of microbial growth was judged by comparison with a control culture prepared without any sample tested. Nystatin (Sigma) was used as a reference antifungal compound. Subsequently MIC minimal inhibitory concentration (MIC) of the compounds was examined by the microdilution broth method, using their two-fold dilutions in RPMI 1640 broth with MOPS prepared in 96-well polystyrene plates. Final concentrations of the compounds ranged from 1000 to 0.0038 µg/ml. Microbial suspensions were prepared in sterile saline with an optical density of 0.5 McFarland standard. Next fungal suspension was added per each well containing broth and various concentrations of the examined compounds. After incubation, the MIC was assessed spectrophotometric as the lowest concentration of the samples showing complete fungal growth inhibition. Appropriate DMSO, growth and sterile controls were carried out. The medium with no tested substances was used as a control (Wiegand et al. [2008]). The minimal fungicidal concentration (MFC) are defined as the lowest concentration of the compounds that is required to kill a particular fungal species. MFC was determined by removing the culture using for MIC determinations from each well and spotting onto appropriate agar medium. The plates were incubated. The lowest compounds concentration with no visible growth observed was assessed as a fungicidal concentration. All the experiments were repeated three times and representative data are presented.
(§2) The MFC/MIC ratios were calculated in order to determine fungicidal (MFC/MIC ≤ 4) or fungistatic (MFC/MIC > 4) effect of the tested compounds (O’Donnell et al. [2010]).

C. lusitaniae = assay: Broth microdilution MIC/MFC, clinical isolate; format: cell-based; conditions: C. lusitaniae clinical strain
Text: as §1, §2

C. dubliniensis = assay: Broth microdilution MIC/MFC, clinical isolate; format: cell-based; conditions: C. dubliniensis clinical strain
Text: as §1, §2

C. albicans = assay: Broth microdilution MIC/MFC, clinical isolate; format: cell-based; conditions: C. albicans clinical strain
Text: as §1, §2

C. famata = assay: Broth microdilution MIC/MFC, clinical isolate; format: cell-based; conditions: C. famata clinical strain
Text: as §1, §2

C. krusei = assay: Broth microdilution MIC/MFC, clinical isolate; format: cell-based; conditions: C. krusei clinical strain
Text: as §1, §2

C. pulcherrima = assay: Broth microdilution MIC/MFC, clinical isolate; format: cell-based; conditions: C. pulcherrima clinical strain
Text: as §1, §2

C. guilliermondii = assay: Broth microdilution MIC/MFC, clinical isolate; format: cell-based; conditions: C. guilliermondii clinical strain
Text: as §1, §2

Structure (SMILES): FC(F)(F)c1ccc(-c2csc(N/N=C/C3CC3)n2)cc1 [Compound 3e, (E)-2-(2-(Cyclopropylmethylene)hydrazinyl)-4-(4-(trifluoromethyl)phenyl)thiazole]
activity at 0.98 µg/mL [1]: 94.4 ± 6.92%
activity at 1.95 µg/mL [1]: 100 ± 2.25%
activity at 3.91 µg/mL [1]: 110 ± 4.37%
animals with reduced seizures ([2]; MES test, 100 mg/kg): 63%
responders at 30 mg/kg ([2]; Mus musculus, MES test, 30 mg/kg ip, read-out: X/Y number of mice protected (X) per number of mice tested (Y)): 0%
responders at 100 mg/kg ([2]; Mus musculus, MES test): 62.5%
anticonvulsant activity in MES test ([2]; 30 mg/kg): not active

Structure (SMILES): C[C@@H]1[C@H](O)[C@@H](C)/C=C/C=C/CC/C=C/C=C/C=C/C=C/C(O[C@H]2O[C@H](C)[C@@H](O)[C@H](N)[C@@H]2O)CC2O[C@](O)(CC(O)C(O)CCC(O)CC(O)CC(O)CC(=O)O[C@H]1C)CC(O)C2C(=O)O (stereo partly drawn) [Nystatin, reference compound]
MFC (C. sake): 0.12 µg/mL (≈ 0.13 µM)
MFC/MIC (C. sake): 2
MIC (C. sake): 0.06 µg/mL (≈ 0.0648 µM)
MFC (C. lusitaniae): 0.24 µg/mL (≈ 0.259 µM)
MFC/MIC (C. lusitaniae): 2
MIC (C. lusitaniae): 0.12 µg/mL (≈ 0.13 µM)
MFC (C. dubliniensis): 0.12 µg/mL (≈ 0.13 µM)
MFC/MIC (C. dubliniensis): 1
MIC (C. dubliniensis): 0.12 µg/mL (≈ 0.13 µM)
MFC (C. albicans): 0.24 µg/mL (≈ 0.259 µM)
MFC/MIC (C. albicans): 1
MIC (C. albicans): 0.24 µg/mL (≈ 0.259 µM)
MFC (C. famata): 0.12 µg/mL (≈ 0.13 µM)
MFC/MIC (C. famata): 2
MIC (C. famata): 0.06 µg/mL (≈ 0.0648 µM)
MFC (C. krusei): 0.98 µg/mL (≈ 1.06 µM)
MFC/MIC (C. krusei): 4
MIC (C. krusei): 0.24 µg/mL (≈ 0.259 µM)
MFC (C. pulcherrima): 0.24 µg/mL (≈ 0.259 µM)
MFC/MIC (C. pulcherrima): 2
MIC (C. pulcherrima): 0.12 µg/mL (≈ 0.13 µM)
MFC (C. guilliermondii): 0.12 µg/mL (≈ 0.13 µM)
MFC/MIC (C. guilliermondii): 2
MIC (C. guilliermondii): 0.06 µg/mL (≈ 0.0648 µM)

MIC (C. sake; Fermentozyma sake, read-out: MIC): 0.48 µg/mL (≈ 1.72 µM)
MIC (C. lusitaniae; Clavispora lusitaniae, read-out: MIC): 0.48 µg/mL (≈ 1.72 µM)
MIC (C. dubliniensis; Candida dubliniensis, read-out: MIC): 0.24 µg/mL (≈ 0.859 µM)
MIC (C. albicans; Candida albicans, read-out: MIC): 0.48 µg/mL (≈ 1.72 µM)
MIC (C. famata; Debaryomyces hansenii, read-out: MIC): 7.81 µg/mL (≈ 28 µM)
MIC (C. krusei; Pichia kudriavzevii, read-out: MIC): 0.03 µg/mL (≈ 0.107 µM)
MIC (C. pulcherrima; read-out: MIC): 250 µg/mL (≈ 895 µM)
MIC (C. guilliermondii; Meyerozyma guilliermondii, read-out: MIC): 7.81 µg/mL (≈ 28 µM)
Structure (SMILES): Fc1ccc(-c2csc(N/N=C/C3CC3)n2)c(F)c1 [Compound 3g, (E)-2-(2-(Cyclopropylmethylene)hydrazinyl)-4-(2,4-difluorophenyl)thiazole]
activity at 0.98 µg/mL [1]: 105 ± 9.98%
activity at 1.95 µg/mL [1]: 91.8 ± 1.12%
activity at 3.91 µg/mL [1]: 81.4 ± 1.6%
activity at 7.81 µg/mL [1]: 78.6 ± 4.6%
activity at 15.63 µg/mL [1]: 58.1 ± 2.94%
activity at 20 µg/mL [1]: 60.9 ± 3.81%
responders at 100 mg/kg ([2]; Mus musculus, MES test): 37.5%
MFC (C. sake; Fermentozyma sake, read-out: MFC): 3.91 µg/mL (≈ 14 µM)
MFC (C. lusitaniae; Clavispora lusitaniae, read-out: MFC): 1.95 µg/mL (≈ 6.98 µM)
MFC (C. dubliniensis; Candida dubliniensis, read-out: MFC): 0.48 µg/mL (≈ 1.72 µM)
MFC (C. albicans; Candida albicans, read-out: MFC): 1.95 µg/mL (≈ 6.98 µM)
MFC (C. famata; Debaryomyces hansenii, read-out: MFC): 62.5 µg/mL (≈ 224 µM)
MFC (C. krusei; Pichia kudriavzevii, read-out: MFC): 0.48 µg/mL (≈ 1.72 µM)
MFC (C. pulcherrima; read-out: MFC): > 1000 µg/mL
MFC (C. guilliermondii; Meyerozyma guilliermondii, read-out: MFC): 31.2 µg/mL (≈ 112 µM)
